Source: patent US20240294541A1, “COMPOUNDS CONSTITUTING C20-MODIFIED SALINOMYCIN DERIVATIVES, A METHOD FOR OBTAINING THE SAME, A COMPOSITION CONTAINING THE SAME AND A USE OF SAID COMPOUNDS” (FILECLO SPOLKA Z OGRANICZONA ODPOWIEDZIALNOSCIA, priority 2021, published 2024)

How the values were obtained:
Format in all cases: cell-based
[1] = system: BALB/3T3 (normal mouse fibroblasts); experiment: In vitro cytotoxicity, SRB assay, normal BALB/3T3 fibroblasts; settings: Table 5; BALB/3T3 normal mouse fibroblasts; read-out: IC50 (nM) BALB3T3 normal cells
[2] = system: A2780Cis (cisplatin-resistant human ovarian cancer); experiment: In vitro cytotoxicity, SRB assay, A2780Cis; settings: for IC50: Homo sapiens, A2780cis, read-out: IC50 (nM) A2780Cis
[3] = system: MV-4-11 (human biphenotypic leukaemia); experiment: In vitro cytotoxicity, MTT assay, MV-4-11; settings: for IC50: Homo sapiens, MV4-11, read-out: IC50 (nM) MV4-11

## CC[C@@H](C(=O)[C@@H](C)[C@@H](O)[C@H](C)[C@@H]1O[C@@H]([C@@H](CC)C(=O)O)CC[C@@H]1C)[C@H]1O[C@]2(C=C[C@@H](NC(=O)C(C)(C)C)[C@]3(CC[C@@](C)([C@H]4CC[C@](O)(CC)[C@H](C)O4)O3)O2)[C@H](C)C[C@@H]1C [FLC-00550-1•Na]
[1]
  IC50: 448 nM
[2]
  SI A2780Cis: 42.1
  IC50: 10.6 nM
[3]
  SI MV4-11: 26.6
  IC50: 16.9 nM

## CC[C@@H](C(=O)[C@@H](C)[C@@H](O)[C@H](C)[C@@H]1O[C@@H]([C@@H](CC)C(=O)O)CC[C@@H]1C)[C@H]1O[C@]2(C=C[C@@H](NC(=O)C(=O)NCc3cccnc3)[C@]3(CC[C@@](C)([C@H]4CC[C@](O)(CC)[C@H](C)O4)O3)O2)[C@H](C)C[C@@H]1C [FLC-00479-1•Na]
[1]
  IC50: 4300 nM
[2]
  SI A2780Cis: 15.8
  IC50: 272 nM
[3]
  SI MV4-11: 12.6
  IC50: 343 nM

## CC[C@@H](C(=O)[C@@H](C)[C@@H](O)[C@H](C)[C@@H]1O[C@@H]([C@@H](CC)C(=O)O)CC[C@@H]1C)[C@H]1O[C@]2(C=C[C@@H](NS(=O)(=O)c3ccc(Br)cc3)[C@]3(CC[C@@](C)([C@H]4CC[C@](O)(CC)[C@H](C)O4)O3)O2)[C@H](C)C[C@@H]1C [FLC-00504-1•Na]
[1]
  IC50: 91.3 nM
[2]
  SI A2780Cis: 30.5
  IC50: 2.99 nM
[3]
  SI MV4-11: 20.7
  IC50: 4.4 nM

## CC[C@@H](C(=O)[C@@H](C)[C@@H](O)[C@H](C)[C@@H]1O[C@@H]([C@@H](CC)C(=O)O)CC[C@@H]1C)[C@H]1O[C@]2(C=C[C@@H](NC(=O)OCCc3scnc3C)[C@]3(CC[C@@](C)([C@H]4CC[C@](O)(CC)[C@H](C)O4)O3)O2)[C@H](C)C[C@@H]1C [FLC-00547-1•Na]
[1]
  IC50: 77.6 nM
[2]
  SI A2780Cis: ≈56.2
  IC50: < 1.38 nM
[3]
  SI MV4-11: 35.2
  IC50: 2.21 nM

## CC[C@@H](C(=O)[C@@H](C)[C@@H](O)[C@H](C)[C@@H]1O[C@@H]([C@@H](CC)C(=O)O)CC[C@@H]1C)[C@H]1O[C@]2(C=C[C@@H](NC(=O)NCCc3cccnc3)[C@]3(CC[C@@](C)([C@H]4CC[C@](O)(CC)[C@H](C)O4)O3)O2)[C@H](C)C[C@@H]1C [FLC-00567-1•Na]
[1]
  IC50: 848 nM
[2]
  SI A2780Cis: 54.2
  IC50: 15.7 nM
[3]
  SI MV4-11: 25.0
  IC50: 34 nM

## CC[C@@H](C(=O)[C@@H](C)[C@@H](O)[C@H](C)[C@@H]1O[C@@H]([C@@H](CC)C(=O)O)CC[C@@H]1C)[C@H]1O[C@]2(C=C[C@@H](NC(=O)N3CCN(C)CC3)[C@]3(CC[C@@](C)([C@H]4CC[C@](O)(CC)[C@H](C)O4)O3)O2)[C@H](C)C[C@@H]1C [FLC-00515-1•Na]
[1]
  IC50: 3790 nM
[2]
  SI A2780Cis: 10.6
  IC50: 357 nM
[3]
  SI MV4-11: 9.5
  IC50: 400 nM

## CC[C@@H](C(=O)[C@@H](C)[C@@H](O)[C@H](C)[C@@H]1O[C@@H]([C@@H](CC)C(=O)O)CC[C@@H]1C)[C@H]1O[C@]2(C=C[C@@H](NS(=O)(=O)c3ccc(C)cc3)[C@]3(CC[C@@](C)([C@H]4CC[C@](O)(CC)[C@H](C)O4)O3)O2)[C@H](C)C[C@@H]1C [FLC-00502-1•Na]
[1]
  IC50: 92.7 nM
[2]
  SI A2780Cis: 52.7
  IC50: 1.76 nM
[3]
  SI MV4-11: 28.1
  IC50: 3.3 nM

## CC[C@@H](C(=O)[C@@H](C)[C@@H](O)[C@H](C)[C@@H]1O[C@@H]([C@@H](CC)C(=O)O)CC[C@@H]1C)[C@H]1O[C@]2(C=C[C@@H](NC(=O)N3CCC3)[C@]3(CC[C@@](C)([C@H]4CC[C@](O)(CC)[C@H](C)O4)O3)O2)[C@H](C)C[C@@H]1C [FLC-00543-1•Na]
[1]
  IC50: 1020 nM
[2]
  SI A2780Cis: 15.2
  IC50: 67 nM
[3]
  SI MV4-11: 5.9
  IC50: 174 nM

## CC[C@@H](C(=O)[C@@H](C)[C@@H](O)[C@H](C)[C@@H]1O[C@@H]([C@@H](CC)C(=O)O)CC[C@@H]1C)[C@H]1O[C@]2(C=C[C@@H](NC(=O)C(=O)NCc3ccncc3)[C@]3(CC[C@@](C)([C@H]4CC[C@](O)(CC)[C@H](C)O4)O3)O2)[C@H](C)C[C@@H]1C [FLC-00489-1•Na]
[1]
  IC50: 4920 nM
[2]
  SI A2780Cis: 28.0
  IC50: 175 nM
[3]
  SI MV4-11: 14.6
  IC50: 338 nM

## CC[C@@H](C(=O)[C@@H](C)[C@@H](O)[C@H](C)[C@@H]1O[C@@H]([C@@H](CC)C(=O)O)CC[C@@H]1C)[C@H]1O[C@]2(C=C[C@@H](NC(=O)N3CCOCC3)[C@]3(CC[C@@](C)([C@H]4CC[C@](O)(CC)[C@H](C)O4)O3)O2)[C@H](C)C[C@@H]1C [FLC-00540-1•Na]
[1]
  IC50: 891 nM
[2]
  SI A2780Cis: 24.1
  IC50: 37 nM
[3]
  SI MV4-11: 16.5
  IC50: 53.9 nM

## CC[C@@H](C(=O)[C@@H](C)[C@@H](O)[C@H](C)[C@@H]1O[C@@H]([C@@H](CC)C(=O)O)CC[C@@H]1C)[C@H]1O[C@]2(C=C[C@@H](NC(=O)OCCS(C)(=O)=O)[C@]3(CC[C@@](C)([C@H]4CC[C@](O)(CC)[C@H](C)O4)O3)O2)[C@H](C)C[C@@H]1C [FLC-00483-1•Na]
[1]
  IC50: 5310 nM
[2]
  SI A2780Cis: 21.2
  IC50: 250 nM
[3]
  SI MV4-11: 15.7
  IC50: 339 nM

## CC[C@@H](C(=O)[C@@H](C)[C@@H](O)[C@H](C)[C@@H]1O[C@@H]([C@@H](CC)C(=O)O)CC[C@@H]1C)[C@H]1O[C@]2(C=C[C@@H](NC(=O)OC3CCOCC3)[C@]3(CC[C@@](C)([C@H]4CC[C@](O)(CC)[C@H](C)O4)O3)O2)[C@H](C)C[C@@H]1C [FLC-00580-1•Na]
[1]
  IC50: 211 nM
[2]
  SI A2780Cis: 94.4
  IC50: 2.24 nM
[3]
  SI MV4-11: 32.5
  IC50: 6.51 nM

## CC[C@@H](C(=O)[C@@H](C)[C@@H](O)[C@H](C)[C@@H]1O[C@@H]([C@@H](CC)C(=O)O)CC[C@@H]1C)[C@H]1O[C@]2(C=C[C@@H](NC(=O)OCCOCCOCCOCCOC)[C@]3(CC[C@@](C)([C@H]4CC[C@](O)(CC)[C@H](C)O4)O3)O2)[C@H](C)C[C@@H]1C [FLC-00481-1•Na]
[1]
  IC50: 3830 nM
[2]
  SI A2780Cis: 17.4
  IC50: 220 nM
[3]
  SI MV4-11: 12.0
  IC50: 320 nM

## CC[C@@H](C(=O)[C@@H](C)[C@@H](O)[C@H](C)[C@@H]1O[C@@H]([C@@H](CC)C(=O)O)CC[C@@H]1C)[C@H]1O[C@]2(C=C[C@@H](NC(=O)OCCC(C)(C)O)[C@]3(CC[C@@](C)([C@H]4CC[C@](O)(CC)[C@H](C)O4)O3)O2)[C@H](C)C[C@@H]1C [FLC-00577-1•Na]
[1]
  IC50: 874 nM
[2]
  SI A2780Cis: 30.0
  IC50: 29.1 nM
[3]
  SI MV4-11: 20.4
  IC50: 42.8 nM

## CC[C@@H](C(=O)[C@@H](C)[C@@H](O)[C@H](C)[C@@H]1O[C@@H]([C@@H](CC)C(=O)O)CC[C@@H]1C)[C@H]1O[C@]2(C=C[C@@H](NS(=O)(=O)c3cccs3)[C@]3(CC[C@@](C)([C@H]4CC[C@](O)(CC)[C@H](C)O4)O3)O2)[C@H](C)C[C@@H]1C [FLC-00505-1•Na]
[1]
  IC50: 116 nM
[2]
  SI A2780Cis: 15.2
  IC50: 7.61 nM
[3]
  SI MV4-11: 8.3
  IC50: 14 nM

## CC[C@@H](C(=O)[C@@H](C)[C@@H](O)[C@H](C)[C@@H]1O[C@@H]([C@@H](CC)C(=O)O)CC[C@@H]1C)[C@H]1O[C@]2(C=C[C@@H](NC(=O)C(=O)NCc3ccccn3)[C@]3(CC[C@@](C)([C@H]4CC[C@](O)(CC)[C@H](C)O4)O3)O2)[C@H](C)C[C@@H]1C [FLC-00478-1•Na]
[1]
  IC50: 1650 nM
[2]
  SI A2780Cis: 25.9
  IC50: 63.6 nM
[3]
  SI MV4-11: 9.2
  IC50: 180 nM
